Measured values taken from a melting point compilation (Tetko et al.; mined from patent text by program, amines drawn as free bases though some values may be those of a salt).

melting point [°C] | Structure (SMILES)
255 to 258 | Nc1cccc(C(=O)O)c1S
174 to 175 | CCCCC1C=C(n2c3ccccc3c3ccccc32)c2ccccc2N1C(=O)c1ccc(OC)c(OC)c1 (configuration not stated)
124 to 125 | CNC(=O)N(O)C(C)c1ccc(C(F)(F)F)cc1 (configuration not stated)
101 to 103 | CCC(OC)(c1cccc(O)c1)c1nccs1 (configuration not stated)
128 to 129 | CC1(C)OC(=O)C(OC2CCc3ccccc32)=C1c1ccc(S(C)(=O)=O)cc1 (configuration not stated)
95 to 96 | CCOC(=O)Cc1csc(Sc2ccc(OCc3nc(-c4ccccc4)oc3C)cc2)n1
149 to 150 | N#Cc1ccc(OCc2ccc(C=Cc3ccncc3)cc2)cc1
98 | NC(=O)c1ccc(OC(F)(F)F)c(Cl)c1
245 | CN(C)C(=O)c1nc(Cl)c(Cl)[nH]1
167 to 170 | Nc1nc(N)c2ncn([C@H]3C=C[C@@H](O)C3)c2n1 (racemic)
88 to 96 | CCOc1cccc(-c2ccnc(Nc3cccc(OC(F)(F)C(F)F)c3)n2)c1
65 | CC(C)SN(C)C(=O)Nc1ccc(Cl)c(Cl)c1
78 to 79 | COC(=O)Cc1ccccc1OCc1ccc(OCCc2nc(-c3ccccc3)oc2C)nc1
178 to 179 | COC(=O)c1c(C(=O)OC)c(-c2ccc(OC)c(OC)c2)c2c(OC)c(OC)c(OC)cc2c1O
257 to 260 | Cc1cc(C)n(Cc2ccc3c(c2)Cc2c(-c4ccsc4)n[nH]c2-3)n1
127 to 129 | CCOC(=O)CN(C)C(=O)c1ccsc1C(=O)c1ccc(F)cc1
198 | O=C(O)c1ccccc1-c1ccccc1CN1C(=O)c2ccccc2C1=O
203 | COc1c(F)cc(-c2cncc(OC3SCC(OC(C)=O)C(OC(C)=O)C3OC(C)=O)c2)cc1F (configuration not stated)
86 to 87 | CNC(=O)C(=O)CCCCCON=Cc1ccc(-c2ccccc2)cc1

melting point [°C] | Structure (SMILES)
212 to 213 | CC(=O)Nc1c(C(=O)c2ccccc2)[nH]c2cc(Cl)ccc12
123 to 125 | Fc1ccc(Oc2ccc(-c3ccn(-c4ncccn4)n3)cc2)cc1
99 to 101 | CC(C)(C)c1ccc(CCCCN2CCC(C3(O)c4ccccc4CCc4ccccc43)CC2)cc1
253 to 254 | CCC(c1cc(C(=O)Nc2ccc(-c3ccc(C(=O)NS(C)(=O)=O)cc3C)cc2)ccc1OC)N(C)C (configuration not stated)
95 to 100 | CC(C)(C)NC(=O)[C@@H]1C[C@H](F)CN1C(=O)[C@@H](O)[C@H](Cc1ccccc1)NC(=O)[C@H](CC(N)=O)NC(=O)OCc1ccccc1
179 to 182 | Cn1cc(C(=O)NCc2ccc(Cl)cc2)c(=O)c2cc(CN3CCOCC3)cc(C#CCCCO)c21
> 265 | CN1C(=O)CC[C@]2(C)c3ccc(-c4cc(C(C)(C)C)c(O)c(C(C)(C)C)c4)cc3CC[C@@H]12
157 to 159 | COc1cc(-c2ccccc2)nc(SCC(=O)O)n1
129 to 131 | CC(C)c1nc2ccccc2c(-c2ccc(F)cc2)c1/C=C/I
184 to 186 | CCOc1cc(C(=O)c2ccccn2)ccc1OCCOc1c(CC(=O)O)cccc1OC
180 to 183 | O=C(O)CCCc1c(-c2ccc(F)cc2)[nH]c2ccc(-c3ccc(O)cc3)cc12
184 to 185 | CC(C)(N)c1ccc(-c2nc(Nc3cccc(CCO)c3)ncc2Cl)cc1
244 to 245 | Cc1c(Nc2ccc([N+](=O)[O-])cc2C(=O)O)cccc1C(F)(F)F
155 to 156 | CN(NC(=O)c1ccccc1C(=O)O)C(=S)Nc1ccccc1
234 to 235 | O=C(O)c1cccc(-c2cccc(Oc3cc(Cl)cc(Cl)c3)n2)c1
101 to 102 | O=Cc1cc2sccc2c2ccccc12
149 to 151 | CC(C)(O)Cn1c(CO)nc2c(N)nc3cc(-c4cncc(CO)c4)cnc3c21
78 to 80 | O=C1N(Cc2ccc(C(F)(F)F)o2)c2ccccc2C12COc1cc(OC(F)(F)F)ccc12 (configuration not stated)
